The text below walks through data of patent publication US10639253B2, “Compositions” (Symrise AG, priority 2014, dated 2020).

SMILES strings stand for the structures.

Holding throughout (assay): Antimicrobial activity in formulation: colony counts over 28 days, synergy by Kull equation
Holding throughout (conditions): for Relative colony counts: relative to day 0; for Colony counts: counts <10 set to 10

The subject of one assay is A. brasiliensis. Format: cell-based, Aspergillus brasiliensis. From the text: Synergistic antimicrobial activity of lactate esters and other flavor and fragrance ingredients against different microorganisms relevant for cosmetics were investigated. To calculate the synergism between lactate esters and other flavor and fragrance ingredients, the Kull equation^1,2 was used ^1 Kull, […]., and R. L. Mayer (1961). Mixtures of Quaternary Ammonium Compounds and Long-chain Fatty Acids as Antifungal Agents. Applied Microbiology 9, 538-541.^2 Steinberg, D. C. (2000). Measuring Synergy. Cosmetics & Toiletries 115 (11), 59-62. SI=(Cmixture×PA)/CA+(Cmixture×PB)/CB where • SI is the Synergy Index according to Kull^1), 2) • CA is the cell count for substance A • CB is the cell count for substance B • Cmixture is the cell count for the mixture of substances A and B • PA is the proportion of the substance A in the mixture • PB is the proportion of the substance B in the mixture. […] The abbreviation “n.a.” means not applicable.

A further assay has as its system C. albicans. Format: cell-based, Candida albicans. From the text:
(§1) Synergistic antimicrobial activity of lactate esters and other flavor and fragrance ingredients against different microorganisms relevant for cosmetics were investigated.
(§2) To calculate the synergism between lactate esters and other flavor and fragrance ingredients, the Kull equation^1,2 was used ^1 Kull, F. C., Eismann, P. C., Sylvestrowicz, H. D., and R. L. Mayer (1961). Mixtures of Quaternary Ammonium Compounds and Long-chain Fatty Acids as Antifungal Agents. Applied Microbiology 9, 538-541.^2 Steinberg, D. C. (2000). Measuring Synergy. Cosmetics & Toiletries 115 (11), 59-62. SI=(Cmixture×PA)/CA+(Cmixture×PB)/CB where • SI is the Synergy Index according to Kull^1), 2) • CA is the cell count for substance A • CB is the cell count for substance B • Cmixture is the cell count for the mixture of substances A and B • PA is the proportion of the substance A in the mixture • PB is the proportion of the substance B in the mixture.
(§3) Colony counts of <10 were arbitrarily set to 10, in order to allow for synergy calculations with the above equation. The abbreviation “n.a.” means not applicable.

In a further assay the test system is S. aureus. The class given is cell-based, Staphylococcus aureus.
Source text: as §1, §2, §3

The next assay has as its system E. coli. Format: cell-based, Escherichia coli.
Source text: as §1, §2, §3

In the case of `COc1ccc(C=O)cc1` [AAld, p-anisic aldehyde], the Relative colony counts in the assay with A. brasiliensis (0.5%, day 0) amounted to 1.0000; with A. brasiliensis (0.5%, day 2), 0.1931; with A. brasiliensis (0.5%, day 7), 0.0483; in the assay on A. brasiliensis (0.5%, day 14), 0.0007; in the assay with A. brasiliensis (0.5%, day 28), 0.0000. Further, the Colony counts with A. brasiliensis (0.5%, day 2) was 560.000 cfu/g formulation; with A. brasiliensis (0.5%, day 7), 140.000 cfu/g formulation; in the assay with A. brasiliensis (0.5%, day 14), 2.100 cfu/g formulation; in the assay on A. brasiliensis (0.5%, day 28), 15 cfu/g formulation.
For the compound `OCCCc1ccccc1` [PP, 3-phenylpropanol], the Relative colony counts is 1.0000 in the assay on C. albicans (0.5%, day 0); 0.4583 in the assay with C. albicans (0.5%, day 2); 0.3875 in the assay with C. albicans (0.5%, day 7); 0.0129 with C. albicans (0.5%, day 14); 0.0000 in the assay on C. albicans (0.5%, day 28); 1.0000 with S. aureus (0.5%, day 0). In addition, the Relative colony counts is 0.0079 with S. aureus (0.5%, day 2); 0.0000 with S. aureus (0.5%, day 7); 0.0000 with S. aureus (0.5%, day 14); 0.0000 in the assay with S. aureus (0.5%, day 28). Also, the Colony counts was determined as 930.000 cfu/g formulation in the assay with C. albicans (0.5%, day 7); 31.000 cfu/g formulation with C. albicans (0.5%, day 14); 10 cfu/g formulation with C. albicans (0.5%, day 28); 23.000 cfu/g formulation in the assay with S. aureus (0.5%, day 2); 80 cfu/g formulation in the assay with S. aureus (0.5%, day 7); 10 cfu/g formulation in the assay on S. aureus (0.5%, day 14). Besides, in the assay with S. aureus (0.5%, day 28), the Colony counts amounted to 10 cfu/g formulation.
For the compound `CCCCCOC(=O)C(C)O` (stereo not shown) [AL, amyl lactate], the Relative colony counts in the assay on S. aureus (1%, day 0) is 1.0000; with S. aureus (1%, day 2) it was 0.0072; in the assay with S. aureus (1%, day 7), 0.0000; in the assay with S. aureus (1%, day 14), 0.0000; in the assay with S. aureus (1%, day 28), 0.0000; with A. brasiliensis (1%, day 0), 1.0000. The Relative colony counts was 0.0552 in the assay on A. brasiliensis (1%, day 2); 0.4828 with A. brasiliensis (1%, day 7); 0.1103 in the assay with A. brasiliensis (1%, day 14); 0.0002 in the assay on A. brasiliensis (1%, day 28). Besides, the Colony counts in the assay on S. aureus (1%, day 2) came to 21.000 cfu/g formulation; in the assay with S. aureus (1%, day 7) it was 15 cfu/g formulation; with S. aureus (1%, day 14) it was 10 cfu/g formulation; in the assay with S. aureus (1%, day 28), 10 cfu/g formulation; in the assay on A. brasiliensis (1%, day 2), 160.000 cfu/g formulation; in the assay on A. brasiliensis (1%, day 14), 320.000 cfu/g formulation. Further, in the assay with A. brasiliensis (1%, day 28), the Colony counts is 660 cfu/g formulation.
As for `CC(O)C(=O)OCc1ccccc1` (stereo not shown) [BL, benzyl lactate], the Relative colony counts was 1.0000 in the assay on S. aureus (1%, day 0); 0.0006 in the assay on S. aureus (1%, day 2); 0.0000 in the assay on S. aureus (1%, day 7); 0.0000 in the assay on S. aureus (1%, day 14); 0.0000 with S. aureus (1%, day 28); 1.0000 with A. brasiliensis (1%, day 0). For the same compound, the Relative colony counts is recorded as 0.0931 in the assay on A. brasiliensis (1%, day 2); 0.0016 with A. brasiliensis (1%, day 7); 0.0000 with A. brasiliensis (1%, day 14); 0.0000 in the assay on A. brasiliensis (1%, day 28). The Colony counts in the assay on S. aureus (1%, day 2) is listed as 1.600 cfu/g formulation; with S. aureus (1%, day 7), 10 cfu/g formulation; in the assay with S. aureus (1%, day 14), 10 cfu/g formulation; with S. aureus (1%, day 28) it was 10 cfu/g formulation; with A. brasiliensis (1%, day 2), 270.000 cfu/g formulation; in the assay with A. brasiliensis (1%, day 7), 4.500 cfu/g formulation. Besides, the Colony counts was 110 cfu/g formulation in the assay on A. brasiliensis (1%, day 14) and 10 cfu/g formulation with A. brasiliensis (1%, day 28).
As to `CCCCOC(=O)C(C)O` (stereo not shown) [BuL, butyl lactate], the Relative colony counts in the assay on C. albicans (1.25%, day 0) stood at 1.0000; in the assay with C. albicans (1.25%, day 2), 0.3083; with C. albicans (1.25%, day 7), 0.0002; in the assay on C. albicans (1.25%, day 14), 0.0000; in the assay on C. albicans (1.25%, day 28) it was 0.0000; in the assay with A. brasiliensis (1.25%, day 0), 1.0000. The Relative colony counts is recorded as 0.2517 in the assay with A. brasiliensis (1.25%, day 2); 0.5517 in the assay with A. brasiliensis (1.25%, day 7); 0.3793 in the assay on A. brasiliensis (1.25%, day 14); 0.0517 in the assay with A. brasiliensis (1.25%, day 28); 1.0000 with E. coli (1.25%, day 0); 0.0041 in the assay with E. coli (1.25%, day 2). For the same compound, the Relative colony counts in the assay with E. coli (1.25%, day 7) is recorded as 0.0000; in the assay on E. coli (1.25%, day 14), 0.0000; in the assay with E. coli (1.25%, day 28), 0.0000. Also, the Colony counts in the assay on C. albicans (1.25%, day 2) is 740.000 cfu/g formulation; in the assay with C. albicans (1.25%, day 7), 430 cfu/g formulation; with C. albicans (1.25%, day 14), 10 cfu/g formulation; with C. albicans (1.25%, day 28), 10 cfu/g formulation; in the assay with A. brasiliensis (1.25%, day 2), 730.000 cfu/g formulation; in the assay on A. brasiliensis (1.25%, day 28), 150.000 cfu/g formulation. The Colony counts in the assay on E. coli (1.25%, day 2) was found to be 13.000 cfu/g formulation; with E. coli (1.25%, day 7), 10 cfu/g formulation; in the assay on E. coli (1.25%, day 14) it was 10 cfu/g formulation; with E. coli (1.25%, day 28), 10 cfu/g formulation.
As for `COc1ccc(C(=O)O)cc1` [AAc, p-anisic acid], the Relative colony counts with S. aureus (0.5%, day 0) is recorded as 1.0000; in the assay on S. aureus (0.5%, day 2) it was 0.8095; with S. aureus (0.5%, day 7), 0.0001; in the assay on S. aureus (0.5%, day 14), 0.0000; with S. aureus (0.5%, day 28), 0.0000; in the assay on A. brasiliensis (0.5%, day 0), 1.0000. Further, the Relative colony counts with A. brasiliensis (0.5%, day 2) worked out at 0.3514; in the assay with A. brasiliensis (0.5%, day 7), 0.0541; in the assay with A. brasiliensis (0.5%, day 14) it was 0.3243; in the assay with A. brasiliensis (0.5%, day 28), 0.5676; in the assay with E. coli (0.5%, day 0) it was 1.0000; in the assay with E. coli (0.5%, day 2) it was 0.0609. Further, the Relative colony counts turned out to be 0.0065 with E. coli (0.5%, day 7); 0.0013 in the assay with E. coli (0.5%, day 14); 0.0000 with E. coli (0.5%, day 28). For the same compound, the Colony counts in the assay on S. aureus (0.5%, day 7) stood at 130 cfu/g formulation; in the assay on S. aureus (0.5%, day 14) it was 10 cfu/g formulation; in the assay with S. aureus (0.5%, day 28), 10 cfu/g formulation; in the assay with A. brasiliensis (0.5%, day 7) it was 200.000 cfu/g formulation; with E. coli (0.5%, day 2) it was 140.000 cfu/g formulation; in the assay on E. coli (0.5%, day 7) it was 15.000 cfu/g formulation. Moreover, the Colony counts was 3.100 cfu/g formulation in the assay with E. coli (0.5%, day 14) and 10 cfu/g formulation with E. coli (0.5%, day 28).
